# Measurements reported in patent US20110104780A1, “ENCAPSULATION OF LIVING CELLS WITHIN AN AEROSOLIZED SOL-GEL MATRIX” (PURDUE RESEARCH FOUNDATION, priority 2008, published 2011).
# Tested on: cells coated with sol-gel vapor
# Experiment: Proton efflux at the cellular surface, self referencing electrode
# Format: cell-based
# Conditions: 48 hours after coating cells with sol-gel vapor
# Description: Data relating to oxygen influx and proton efflux were collected using a self referencing electrode apparatus.
# Proton efflux is the result of a variety of cellular properties including metabolism.
row,Compound,proton efflux after addition of metabolic disrupter
1,[N-]=[N+]=[N-].[Na+] [NaN3],decreasing efflux
2,antimycin A,increasing efflux
3,CC[C@H]1/C=C/C=C/C[C@@H](C)[C@H](O)[C@@](C)(O)C(=O)[C@@H](C)[C@H](O)[C@@H](C)C(=O)[C@@H](C)[C@H](O)[C@@H](C)/C=C/C(=O)O[C@@H]2[C@H](C)[C@H](CC1)O[C@]1(CC[C@H](C)[C@H](C[C@@H](C)O)O1)[C@H]2C [oligomycin],decreasing efflux
